Here are results for 2 compounds from US11376269B2, “Pharmaceutical compositions for the treatment of chemoresistant acute myeloid leukemia (AML)” (INSERM (INSTITUT NATIONAL DE LA SANTÉ ET DE LA RECHERCHE …, priority 2016, dated 2022).

Broadly, the IC50 is the point on the concentration scale where inhibition reaches its midpoint.

For assay [1], the system named is U937 AML cell line. The assay is described as follows: Cell viability of U937 AML cell line, AnnexinV/7AAD-based flow cytometry assay. Details: species or system human. The settings on record: U937, 0.5 μM Ara-C, 100 μmol/L ARL. Here is the method: (§1) FIG. 4. In vitro potentiatingeffect of ARL67156 (CD39 inhibitor) with cytarabine (AraC) in MOLM14 cell line. (A-B) MOLM14 cells were either treated or not with 2 μM Ara-C, 100 μmol/L ARL or 250 μmol/L of another CD39 inhibitor, POM-1, for 48 h. Cell viability was assessed using AnnexinV/7AAD-based flow cytometry assay. (C) U937 AML cell line was either treated or not with 0.5 μM Ara-C or 100 μmol/L ARL. The percent of viable cells was analyzed using AnnexinV/7AAD-based flow cytometry assay.
(§2) In vitro potentiating effect of CD39 inhibitor with cytarabine in MOLM14 cell line. In order to explore the effect of CD39 onto the chemoresistance to AraC in AML cell lines in vitro, we first tested the consequence of CD39 inhibition using an ecto-ATPase inhibitor ARL67156. […] High ADP and/or P2YR13 activation might be involved into this compensatory and protective mechanism.

Assay [2] deals with MOLM14 cells. The assay can be described thus: Cell viability of MOLM14 cells, AnnexinV/7AAD-based flow cytometry assay. Details: species or system human. Here is the method:
(§3) FIG. 3. In vitro study of the CD39 protein expression in MOLM14 AML cells after cytarabine (AraC) treatment in normoxia (21%) and hypoxia (1%). (A) Western analysis of the expression of HIF-1alpha, VDAC, CD39, P2Y13, pATF2 and HSP90 (as loading control) in MOLM14 cells after normoxia (21% O2) or hypoxia (1% O2) for 24 h, 48 h or 72 h. Each lane contained 30 μg of protein. (B-C-D) MOLM14 cells were treated with AraC (2 μM, IC50 in normoxia) for 48 h either in normoxia (21% O2) or hypoxia (1% O2). Flow cytometric analyses were perform to assess cell viability (B), CD39^+ expression (C-D). The results are representative of at least three independent experiments. The ATPase activity of CD39 in MOLM14 cells after Ara-C treatment was assessed and the concentration of non-hydrolyzed extracellular ATP was determined using the ATPlite assay (PerkinElmer) (E).
as §1, §2

Assay [3] relates to primary AML cells from patients. The assay can be described thus: NSG mice xenografted with primary AML cells from patients (PDX), flow cytometry of residual cells. The format is in vivo. Here is the method:
FIG. 2. Validation of the increase in CD39 after cytarabine (AraC) in 9 patient-derived xenografts, 45 AML patients and 2 cell line-derived xenografts. (A) The total number of human AML cells expressing CD45, CD33 and CD44 in 9 patient-derived xenograft (PDX) was analyzed and quantified using flow cytometry in AraC-treated xenografted mice compared to PBS-treated xenografted mice in bone marrow and spleen. (B) Flow cytometric analysis of the percent of CD34^+CD38^− immature cell population was performed in human viable residual CD45^+CD33^+ AML cells from AraC-treated xenografted mice compared to PBS-treated xenografted mice in bone marrow. (C) The percent of CD39^+ cells in the bulk population and CD34^+CD38^− immature cell population of human viable residual CD45^+CD33^+ AML cells was assessed in AraC-treated xenografted mice compared to PBS-treated xenografted mice in bone marrow by flow cytometry. (D-E-F) Similarly, flow cytometric analyses of 45 AML patients in peripheral blood at D35 (post-chemotherapy) and diagnosis to assess the percentage of blasts (D), of CD34^+CD38^− immature cells (E), and of CD39^+ residual cells in both total blasts (bulk) and CD34^+CD38^− population (F). (G-H) Flow cytometry analysis of 1 resistant cell line (MOLM14) and 1 sensitive cell line (U937)-derived xenograft (CLDX) to assess the total cell tumor burden of human viable AML cells in AraC- and PBS-treated CLDX (G), the percent of CD39^+ cells (H).
Until recently, mouse models of AML have been extensively used to characterize the nature and origin of LSCs (in part by our group: Sanchez et al. 2009. Sarry et al. 2011), but less frequently used to study their chemoresistance and miminum residual disease in vivo, an approach that is crucial to improve therapeutic outcome of AML patients. Thus, we tested and established an appropriate dose and regimen for use of AraC as baseline cytotoxic in our NSG mice xenografted with primary AML cells from patients seen at diagnosis or relapse of disease. We have access to a large resource of primary samples through our Biobank of the Hematology Clinical Department of the Oncopole Hospital in Toulouse (HIMIP, INSERM-U1037, ˜150 patients newly diagnosed/year) and in collaboration with Drs Gwen Danet-Desnoyers and Martin Carroll (University of Pennsylvania, Pa., USA). Then, we analyzed human AML cells surviving after AraC treatment over time. […] CANCER DISCOVERY. 2017).
Based on this model and the current hypothesis that AraC-resistant cells are rare, replicatively dormant and well adapted to hypoxic conditions (Ishikawa et al. 2007; Raaijmakers, 2011; Wilson and Hay, 2011), we have further analyzed all of these characteristics in AraC-treated patient-xenografted mice. We have first confirmed that CD34^+CD38^− cell population is increased post-AraC chemotherapy in residual AML cells. […] Finally, we have identified a signature of 15 genes (amongst of 350 genes, including CD39/ENTPD1 and P2Y13), that are the most differentially expressed in all of the three AML patient-derived xenografts after AraC treatment as compared to control samples using our in vivo PDX models coupled to a gene expression analysis (FIG. 1a).
Validation of the increase in CD39 expression in 9 patient-derived xenograft (PDX) models treated with cytarabine and in 45 AML patients at D35 compared to diagnosis. We first examined the effect of AraC on CD39 expression in residual viable AML cells from our NSG model xenografted with primary AML cells from 9 patients (FIG. 2a). […] Then, we analyzed CD39 expression in two AML cell line-derived xenografts, which confirmed our previous results in patients and PDXs.
For orientation: A flow cytometer gives signals particle by particle.

Assay [4] relates to AML blasts. The assay can be described thus: Flow cytometry of peripheral blood of 45 AML patients at D35 post-chemotherapy versus diagnosis. Type of assay: in vivo, human. Conditions: day 35 post-AraC versus diagnosis. Here is the method:
(§4) FIG. 2. Validation of the increase in CD39 after cytarabine (AraC) in 9 patient-derived xenografts, 45 AML patients and 2 cell line-derived xenografts. (A) The total number of human AML cells expressing CD45, CD33 and CD44 in 9 patient-derived xenograft (PDX) was analyzed and quantified using flow cytometry in AraC-treated xenografted mice compared to PBS-treated xenografted mice in bone marrow and spleen. (B) Flow cytometric analysis of the percent of CD34^+CD38^− immature cell population was performed in human viable residual CD45^+CD33^+ AML cells from AraC-treated xenografted mice compared to PBS-treated xenografted mice in bone marrow. (C) The percent of CD39^+ cells in the bulk population and CD34^+CD38^− immature cell population of human viable residual CD45^+CD33^+ AML cells was assessed in AraC-treated xenografted mice compared to PBS-treated xenografted mice in bone marrow by flow cytometry. […]
(§5) Validation of the increase in CD39 expression in 9 patient-derived xenograft (PDX) models treated with cytarabine and in 45 AML patients at D35 compared to diagnosis. […] Then, we analyzed CD39 expression in two AML cell line-derived xenografts, which confirmed our previous results in patients and PDXs.

Assay [5] deals with CD39. The assay can be described thus: ATPase activity of CD39 in MOLM14 cells, non-hydrolyzed extracellular ATP by ATPlite assay. The settings on record: MOLM14 after AraC, normoxic and hypoxic conditions. The format is cell-based, human. As to the method: as §3, with “(B-C-D) MOLM14 cells were treated with AraC (2 μM, IC50 in normoxia) for 48 h either in normoxia (21% O2) or hypoxia (1% O2).” left out, “The results are representative of at least three independent experiments.” left out
(§6) Then, we have established an AML cell line model to further study this mechanism. Using MOLM14 AML cell lines and hypoxic condition (1% versus 21% O2), we have analyzed the CD39 expression and ATP-hydrolyzing activity (FIG. 3).
For orientation: In ATP-based viability assays light output follows the ATP content of the culture.

For assay [6], the system named is CD39. The assay is described as follows: CD39 expression in MOLM14 cells after AraC in normoxia and hypoxia, flow cytometry. The settings on record: MOLM14, AraC 2 μM, 48 h, normoxic and hypoxic conditions. The format is cell-based, human. Here is the method:
as §3, with “(B-C-D) MOLM14 cells were treated with AraC (2 μM, IC50 in normoxia) for 48 h either in normoxia (21% O2) or hypoxia (1% O2).” left out, “The results are representative of at least three independent experiments.” left out
as §6

Assay [7] concerns U937. The assay is described as follows: U937 (sensitive) cell line-derived xenograft (CLDX). The format is in vivo, mice. As to the method: as §4, §5
Setting [8] is: AraC-treated patient-xenografted mice.

Take `CCN(CC)c1ncnc2c1ncn2[C@@H]1O[C@H](COP(=O)(O)OP(=O)(O)C(Br)(Br)P(=O)(O)O)[C@@H](O)[C@H]1O` [ARL67156]: in assay [1], the “potentiation of the effect of AraC in inducing cell death” value is given as “did not potentiate the effect of AraC in inducing cell death”. Also, the “induction of cell death alone” value in assay [2] (MOLM14, 100 μmol/L ARL, 48 h, in absence of AraC) is reported as “did not induce cell death alone”. For the same compound, the “potentiating effect with AraC on cell death” value in assay [2] (MOLM14, with 2 μM Ara-C, 100 μmol/L ARL or 250 μmol/L POM-1, 48 h) was “potentiatingeffect”.
As for `Nc1ccn([C@@H]2O[C@H](CO)[C@@H](O)[C@@H]2O)c(=O)n1` [AraC, cytarabine], the “total cell tumor burden in bone marrow and spleen” value is “significant cytoreduction” in assay [3] (9 PDX, AraC-treated versus PBS-treated mice) and “significant cytoreduction” in assay [7]. The “percent of CD39 cells in bulk and immature CD34+CD38− population” value in assay [3] (9 PDX, AraC-treated versus control mice) was “increase in percent of CD39 cells”. In addition, the “CD34+CD38− population in residual AML cells” value in assay [3] (9 PDX, post-AraC, bone marrow) is given as “increase”. The “killing of cycling and quiescent cells and LSCs in vivo” value in assay [3] (setting [8]) was “equally kills both cycling and quiescent cells as well as LSCs in vivo”. The “type of cell death induced in vivo” value in assay [3] (setting [8]) was “ROS-/MMP-dependent apoptotic cell death”. Also, the “peripheral engraftment and total cell tumor burden” value in assay [3] (all patients tested, PDX in NSG mice) was “significant cytoreduction”. Further, the duration of response in assay [3] (variable from patient to patient, PDX in NSG mice) was 2-7 weeks. The “CD34+CD38− population and CD39 cells in residual bulk and immature populations” value in assay [4] is “increase”. For the same compound, the IC50 in assay [2] (Homo sapiens, MOLM-14, MOLM14 cells, normoxia (21% O2)) was 2000 nM. Besides, the “remaining ATP (ATP-hydrolyzing activity of CD39)” value in assay [5] is “significant decrease”. Besides, in assay [6], the “percent and expression of CD39 in residual viable cells” value is “increased the percent and expression of CD39”. Further, in assay [7] (post-AraC versus vehicle), the CD39 expression entry is “increases”.
